# Legend:
# [1] = biological target: 72 kDa type IV collagenase (Homo sapiens, UniProt P08253); assay: Inhibition of APMA-activated human recombinant MMP2 incubated for 5 mins using 4-nitrophenylacetate substrate by esterase assay
# [2] = Cytotoxicity against HEK293T cells incubated for 48 hrs by MTT assay; format: cell-based, HEK-293T; settings: human
# HeLa = assay: Antiproliferative activity against human HeLa cells incubated for 48 hrs by MTT assay; format: functional, cell-based
# A549 [3] = assay: cells; settings: Homo sapiens, A549, 48 h
# MCF7 = assay: Antiproliferative activity against human MCF7 cells incubated for 48 hrs by MTT assay; format: functional, cell-based; settings: MCF7, 48 h
# [4] = biological target: Matrix metalloproteinase-9 (Homo sapiens, UniProt P14780); assay: Inhibition of APMA-activated human recombinant MMP9 incubated for 5 mins using 4-nitrophenylacetate substrate by esterase assay
# HepG2 = assay: Antiproliferative activity against human HepG2 cells incubated for 48 hrs by MTT assay; format: functional, cell-based; settings: HepG2, 48 h
# A549 [5] = assay: Induction of apoptosis in human A549 cells assessed as late apoptotic cells level at 4 uM by AnnexinV-FITC and propidium iodide staining based flow cytometry (reference value: 8.81%); format: functional
# A549 [6] = assay: Induction of apoptosis in human A549 cells assessed as viable cells at 2 uM by AnnexinV-FITC and propidium iodide staining based flow cytometry (reference value: 85.3%); format: functional; settings: read-out: Activity
# A549 [7] = assay: Induction of apoptosis in human A549 cells assessed as necrotic cells level at 16 uM by AnnexinV-FITC and propidium iodide staining based flow cytometry (reference value: 0.964%); format: functional
# A549 [8] = assay: Induction of apoptosis in human A549 cells assessed as necrotic cells level at 2 uM by AnnexinV-FITC and propidium iodide staining based flow cytometry (reference value: 0.964%); format: functional
# A549 [9] = assay: Induction of apoptosis in human A549 cells assessed as late apoptotic cells level at 16 uM by AnnexinV-FITC and propidium iodide staining based flow cytometry (reference value: 8.81%); format: functional
# A549 [10] = assay: Induction of apoptosis in human A549 cells assessed as early apoptotic cells level at 16 uM by AnnexinV-FITC and propidium iodide staining based flow cytometry (reference value: 5.08%); format: functional
# A549 [11] = assay: Induction of apoptosis in human A549 cells assessed as necrotic cells level at 4 uM by AnnexinV-FITC and propidium iodide staining based flow cytometry (reference value: 0.964%); format: functional
# A549 [12] = assay: Induction of apoptosis in human A549 cells assessed as early apoptotic cells level at 4 uM by AnnexinV-FITC and propidium iodide staining based flow cytometry (reference value: 5.08%); format: functional
# A549 [13] = assay: Induction of apoptosis in human A549 cells assessed as late apoptotic cells level at 2 uM by AnnexinV-FITC and propidium iodide staining based flow cytometry (reference value: 8.81%); format: functional
# A549 [14] = assay: Induction of apoptosis in human A549 cells assessed as early apoptotic cells level at 2 uM by AnnexinV-FITC and propidium iodide staining based flow cytometry (reference value: 5.08%); format: functional
# A549 [15] = assay: Induction of apoptosis in human A549 cells by AnnexinV-FITC and propidium iodide staining based flow cytometry; format: functional, cell-based
# A549 [16] = assay: Induction of apoptosis in human A549 cells assessed as viable cells at 4 uM by AnnexinV-FITC and propidium iodide staining based flow cytometry (reference value: 85.3%); format: functional; settings: read-out: Activity
# A549 [17] = assay: Induction of apoptosis in human A549 cells assessed as viable cells at 16 uM by AnnexinV-FITC and propidium iodide staining based flow cytometry (reference value: 85.3%); format: functional; settings: read-out: Activity
# Chain of 72 kDa type IV collagenase (P08253 whole entry): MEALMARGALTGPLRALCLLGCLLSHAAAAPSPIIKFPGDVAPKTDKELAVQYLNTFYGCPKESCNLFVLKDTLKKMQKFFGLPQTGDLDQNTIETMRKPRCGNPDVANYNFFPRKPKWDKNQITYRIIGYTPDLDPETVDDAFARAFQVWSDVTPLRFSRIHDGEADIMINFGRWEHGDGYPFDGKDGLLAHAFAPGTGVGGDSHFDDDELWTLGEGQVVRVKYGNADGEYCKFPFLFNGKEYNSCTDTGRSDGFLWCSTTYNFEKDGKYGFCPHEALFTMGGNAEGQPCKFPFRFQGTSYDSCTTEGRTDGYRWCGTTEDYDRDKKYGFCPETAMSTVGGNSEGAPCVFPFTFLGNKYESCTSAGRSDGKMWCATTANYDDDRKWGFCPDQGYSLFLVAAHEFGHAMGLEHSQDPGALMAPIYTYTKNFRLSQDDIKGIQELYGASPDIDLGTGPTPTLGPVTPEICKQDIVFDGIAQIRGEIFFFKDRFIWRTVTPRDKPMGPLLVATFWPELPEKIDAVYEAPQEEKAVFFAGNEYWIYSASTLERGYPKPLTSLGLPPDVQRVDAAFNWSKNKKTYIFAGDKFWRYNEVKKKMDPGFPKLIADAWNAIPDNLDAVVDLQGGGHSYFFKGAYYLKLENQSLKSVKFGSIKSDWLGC
# Chain of Matrix metalloproteinase-9 (P14780 whole entry): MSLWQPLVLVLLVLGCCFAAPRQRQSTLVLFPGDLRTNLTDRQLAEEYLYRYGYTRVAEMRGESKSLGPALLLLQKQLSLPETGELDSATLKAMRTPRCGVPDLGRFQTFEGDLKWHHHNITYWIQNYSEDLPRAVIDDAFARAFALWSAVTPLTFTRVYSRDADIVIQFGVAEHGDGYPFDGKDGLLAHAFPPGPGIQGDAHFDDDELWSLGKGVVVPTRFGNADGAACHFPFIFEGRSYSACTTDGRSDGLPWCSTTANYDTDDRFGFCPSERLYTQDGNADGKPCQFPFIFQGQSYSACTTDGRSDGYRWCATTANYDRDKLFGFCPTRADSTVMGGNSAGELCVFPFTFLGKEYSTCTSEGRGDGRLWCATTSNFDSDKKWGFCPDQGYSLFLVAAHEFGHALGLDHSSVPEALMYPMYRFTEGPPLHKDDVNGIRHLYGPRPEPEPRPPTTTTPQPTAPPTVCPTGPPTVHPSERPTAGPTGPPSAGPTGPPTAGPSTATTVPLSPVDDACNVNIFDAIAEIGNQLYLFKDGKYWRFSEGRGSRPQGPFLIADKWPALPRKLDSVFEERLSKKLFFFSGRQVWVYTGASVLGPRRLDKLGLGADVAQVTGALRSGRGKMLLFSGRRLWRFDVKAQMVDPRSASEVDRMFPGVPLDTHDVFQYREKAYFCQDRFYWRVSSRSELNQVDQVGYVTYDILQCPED
IC50 ([1]; read-out: IC50) [µM],IC50 (HeLa) [µM],IC50 (A549 [3]) [µM],IC50 (MCF7) [µM],IC50 [4] [µM],IC50 (HepG2) [µM],Structure (SMILES),CC50 at 48 h [2] [µM],other results
2.7,11.5,2.98,18,5.47,16.4,NS(=O)(=O)c1ccc(N2N=C(c3ccc(Cl)cc3)CC2c2cccc3ccccc23)cc1 (centres undefined),49.2,–
16.8,26.1,6.95,12.3,19.8,20.7,NS(=O)(=O)c1ccc(N2N=C(c3ccc(F)cc3)CC2c2ccc3ccccc3c2)cc1 (centres undefined),49.5,–
23.8,21.1,7.83,13.1,5.96,24.8,NS(=O)(=O)c1ccc(N2N=C(c3cccc(F)c3)CC2c2ccc3ccccc3c2)cc1 (centres undefined),49,–
0.21,12.1,1.9,18.1,1.87,6.99,Cc1ccc(C2=NN(c3ccc(S(N)(=O)=O)cc3)C(c3cccc4ccccc34)C2)c(C)c1 (centres undefined),52.5,Activity (A549 [5]): 12.9%; viability at 2 µM (A549 [6]): 82.8%; Activity (A549 [7]): 0.868%; Activity (A549 [8]): 1.1%; Activity (A549 [9]): 16.9%; Activity (A549 [10]): 3.88%; Activity (A549 [11]): 1.14%; Activity (A549 [12]): 4.84%; Activity (A549 [13]): 10.2%; Activity (A549 [14]): 5.91%; Activity (A549 [15]): Dose-dependent effect; viability at 4 µM (A549 [16]): 81.1%; viability at 16 µM (A549 [17]): 78.3%
7.92,20.2,12.9,22.6,10.9,19.1,NS(=O)(=O)c1ccc(N2N=C(c3ccccc3)CC2c2cccc3ccccc23)cc1 (centres undefined),51.4,–
8.63,29.1,7.38,23.6,12,10,NS(=O)(=O)c1ccc(N2N=C(c3ccccc3Cl)CC2c2cccc3ccccc23)cc1 (centres undefined),53.1,IC50 ([1]; read-out: pIC50 (converted)): 8.51 µM
3.6,19.2,2.76,12.4,5.88,25,NS(=O)(=O)c1ccc(N2N=C(c3ccc(Cl)cc3)CC2c2ccc3ccccc3c2)cc1 (centres undefined),54.8,–
14.9,35.4,17.8,38.2,18.3,9.17,CCOc1ccc(C2=NN(c3ccc(S(N)(=O)=O)cc3)C(c3ccc4ccccc4c3)C2)cc1 (centres undefined),53.8,–
9.43,26,6.83,18.1,12.9,8.06,NS(=O)(=O)c1ccc(N2N=C(c3cccc(I)c3)CC2c2cccc3ccccc23)cc1 (centres undefined),46.9,–
11.4,15.6,6.84,16.3,7.91,6.88,Cc1ccccc1C1=NN(c2ccc(S(N)(=O)=O)cc2)C(c2ccc3ccccc3c2)C1 (centres undefined),51.7,–
4.27,30.1,6.51,26.4,8.61,27.8,COc1ccc(C2=NN(c3ccc(S(N)(=O)=O)cc3)C(c3cccc4ccccc34)C2)cc1 (centres undefined),47.1,IC50 ([1]; read-out: pIC50 (converted)): 4.17 µM
–,7.55,2.15,6.88,–,0.76,Cc1ccc(-c2cc(C(F)(F)F)nn2-c2ccc(S(N)(=O)=O)cc2)cc1 [CELECOXIB],54.4,–
2.15,36.5,8.67,13.6,4.68,26,COc1cccc(C2=NN(c3ccc(S(N)(=O)=O)cc3)C(c3ccc4ccccc4c3)C2)c1 (centres undefined),49.4,–
2.81,17.6,6.9,18.2,4.95,8.32,Cc1ccc(C2=NN(c3ccc(S(N)(=O)=O)cc3)C(c3ccc4ccccc4c3)C2)cc1 (centres undefined),53.1,–
12.6,13,8.42,21.6,33.8,17.9,NS(=O)(=O)c1ccc(N2N=C(c3ccccc3)CC2c2ccc3ccccc3c2)cc1 (centres undefined),50.5,–
6.81,8.61,7.77,9.89,16,7.04,Cc1ccc(C2=NN(c3ccc(S(N)(=O)=O)cc3)C(c3cccc4ccccc34)C2)cc1 (centres undefined),51.3,–
11.4,28.8,8.19,28.8,7.97,14.9,NS(=O)(=O)c1ccc(N2N=C(c3cccc(Br)c3)CC2c2cccc3ccccc23)cc1 (centres undefined),42.2,IC50 ([1]; read-out: pIC50 (converted)): 11.2 µM
17.8,23.7,10.3,9.15,13.9,29,NS(=O)(=O)c1ccc(N2N=C(c3cccc(Br)c3)CC2c2ccc3ccccc3c2)cc1 (centres undefined),47,–
0.81,18.5,3.33,35.1,3.19,8.66,CCOc1ccc(C2=NN(c3ccc(S(N)(=O)=O)cc3)C(c3cccc4ccccc34)C2)cc1 (centres undefined),59.5,–
14.8,16.4,2.16,8.64,8.72,31.1,NS(=O)(=O)c1ccc(N2N=C(c3ccccc3Cl)CC2c2ccc3ccccc3c2)cc1 (centres undefined),49.9,–
9.9,35.4,9.31,50.6,19,22.3,COc1ccc(C2=NN(c3ccc(S(N)(=O)=O)cc3)C(c3ccc4ccccc4c3)C2)cc1 (centres undefined),45.4,–
3.86,26.4,7.64,11.1,5.92,7.68,Cc1cccc(C2=NN(c3ccc(S(N)(=O)=O)cc3)C(c3ccc4ccccc4c3)C2)c1 (centres undefined),52.4,–
–,–,2.86,–,–,–,COc1cc2ncnc(Nc3ccc(F)c(Cl)c3)c2cc1OCCCN1CCOCC1 [GEFITINIB],–,–
2.91,6.37,2.84,10,5.43,5.38,Cc1ccccc1C1=NN(c2ccc(S(N)(=O)=O)cc2)C(c2cccc3ccccc23)C1 (centres undefined),51.2,–
3.24,9.87,3.14,8.63,4.29,5.83,Cc1cccc(C2=NN(c3ccc(S(N)(=O)=O)cc3)C(c3cccc4ccccc34)C2)c1 (centres undefined),48.2,–
4.83,30.6,5.82,26.1,6.72,36.4,COc1cccc(C2=NN(c3ccc(S(N)(=O)=O)cc3)C(c3cccc4ccccc34)C2)c1 (centres undefined),45.3,–
15.7,32,12,11.1,6.91,18.1,NS(=O)(=O)c1ccc(N2N=C(c3cccc(I)c3)CC2c2ccc3ccccc3c2)cc1 (centres undefined),55.9,–

Structure (SMILES),IC50 ([1]; read-out: IC50) [µM],IC50 (HeLa) [µM],IC50 (A549 [3]) [µM],IC50 (MCF7) [µM],IC50 [4] [µM],IC50 (HepG2) [µM],CC50 at 48 h [2] [µM],other results
C[C@@]1(O)c2cccc(O)c2C(=O)C2=C(O)[C@]3(O)C(=O)C(C(N)=O)=C(O)C[C@@H]3C[C@@H]21,1.26,–,–,–,2.52,–,–,–

# From ChEMBL document CHEMBL3621140, “Sulfonamide derivatives containing dihydropyrazole moieties selectively and potently inhibit MMP-2/MMP-9: Design, synthesis, inhibitory activity and 3D-QSAR analysis” (Bioorg Med Chem Lett, 2015)
